# Laboratory results taken from patent US20110105397A1, “METHOD FOR TREATING HEART FAILURE WITH STRESSCOPIN-LIKE PEPTIDES” (priority 2009, published 2011).
# Read-outs that look alike come from different tables or passages of the source.
# Assays:
# [1] = system: Langendorff perfused rabbit heart; test: Retrograde-perfused Langendorff rabbit heart assay; conditions: bolus into the perfusion block
# Procedure: The effect of h-SCP (SEQ ID NO:1) on heart rate (HR), left ventricular (LV) contraction, and vascular tone was assessed in a retrograde-perfused Langendorff rabbit heart assay.
# [2] = Human pharmacokinetics, heart failure subjects, 7.5-hour continuous ascending dose IV infusion; conditions: in vivo; for Tmax: median
# Procedure: In heart failure subjects following a 7.5-hour continuous ascending dose IV infusion of h-SCP (SEQ ID NO:1) noncompartmental pharmacokinetic analyses were performed on plasma concentrations of h-SCP (SEQ ID NO:1). The pharmacokinetics of h-SCP (SEQ ID NO:1) in heart failure subjects appeared to be similar to that of healthy subjects. […] Within 30 minutes, plasma h-SCP (SEQ ID NO:1) was reduced to equal or less than 20% of the h-SCP (SEQ ID NO:1) level at the end of the infusion (FIG. 16B).
# [3] = in vivo; conditions: dog, iv
# Procedure: The findings described above were further examined in a study, in which h-SCP (SEQ ID NO:1) was infused over a 30-minute period at the same total doses that were administered by bolus as described above with the results presented in Table 17 and FIGS. 11A & B. As in the case of bolus dosing h-SCP (SEQ ID NO:1) elicited dose- (infusion-) dependent changes in blood pressure, left ventricular systolic and diastolic function, and heart rate. However, at the lower range of the dose- (infusion-) response curve there was a pronounced lessening in the positive chronotropic and blood pressure response with marked and significant increase in cardiac function measured as increased CO and LVEF. […] The corresponding plasma concentration of h-SCP (SEQ ID NO:1) was 4,577 pg/mL.
# A sandwich immunoassay was developed using an affinity purified goat polyclonal antibody, specific to h-SCP that was pre-coated onto a microplate with integrated electrodes. h-SCP molecules present in the sample will bind to the capture polyclonal antibody coated on the plate. After washing away any unbound substances, a sulfo-tagged mouse monoclonal anti-h-SCP antibody was added. This conjugated antibody will bind to the h-SCP molecules captured on the microplate and the quantity of analyte was determined by electrochemiluminescence. The amount of signal generated is directly proportional to the h-SCP concentration in the sample or standard. The standard curve range is 3.125-1600 pg/mL with a quantifiable range from 10-800 pg/mL. A sample volume of 25 μL (in duplicate) is required for this assay. This immunoassay is specific for human and dog stresscopin and human urocortin III (h-UCN3). […] After completion of the analysis, based on a comparison of reference standards between the ELISA and HPLC method, a correction factor of 1.57 was applied to all bioanalytical data.
# [4] = Human pharmacokinetics, healthy subjects, 24- or 72-hour infusion of 54 ng/kg/min; conditions: in vivo; for Vd: Vss; for Tmax: median
# Procedure: In healthy subjects following a 24- or 72-hour infusion of 54 ng/kg/min of h-SCP (SEQ ID NO:1) noncompartmental pharmacokinetic analyses were performed on plasma concentrations of h-SCP (SEQ ID NO:1).
# [5] = target: T1, h-CRHR1 (Homo sapiens, UniProt P34998); conditions: h-CRHR1 transfected HEK-293 cells, approximated values from concentration response curves (Hsu et al., 2001); cited from earlier work
# T1 sequence (P34998 24-415): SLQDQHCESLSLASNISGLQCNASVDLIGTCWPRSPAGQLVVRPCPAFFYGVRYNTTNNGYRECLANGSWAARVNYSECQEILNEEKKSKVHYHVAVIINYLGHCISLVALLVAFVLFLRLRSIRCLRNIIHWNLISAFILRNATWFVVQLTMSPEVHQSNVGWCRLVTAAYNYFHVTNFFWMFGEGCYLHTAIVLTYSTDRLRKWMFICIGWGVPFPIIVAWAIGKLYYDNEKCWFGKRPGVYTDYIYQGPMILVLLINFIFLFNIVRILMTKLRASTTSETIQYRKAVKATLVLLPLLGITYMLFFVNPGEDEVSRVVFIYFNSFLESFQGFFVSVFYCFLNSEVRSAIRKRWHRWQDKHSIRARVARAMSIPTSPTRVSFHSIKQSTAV
# [6] = infusion rate 1/3/9 ng/kg/min, mean, N = 2
# [7] = infusion rate 3/9/18 ng/kg/min, mean, N = 2
# [8] = infusion rate 3/18/54 ng/kg/min, mean, N = 2
# [9] = male, 54 ng/kg, healthy subjects, 54 ng/kg/min, 24 Hours Male, mean, N = 7
# [10] = male, 54 ng/kg, healthy subjects, 54 ng/kg/min, 72 Hours Male, mean, N = 7
substance,measurement,setting,value
"H-TKFTLSLDVPTNIMNLLFNIAKAKNLRAQAAANAHLMAQI-NH2 [SEQ ID NO: 1, TKFTLSLDVPTNIMNLLFNIAKAKNLRAQAAANAHLMAQI-NH2]",EC50,"[1]; read-out: concentration for 50% response, decrease in coronary perfusion pressure (CPP)",46 nM
same,EC50,"[1]; read-out: concentration for 50% response, increase in heart rate",52 nM
same,EC50,"[1]; read-out: concentration for 50% response, increase in left ventricular developed pressure (dP/dtmax)",9.9 nM
same,AUC(0-inf),"[2]; infusion rate 0.3/1/3 ng/kg/min, N = 1",3.4 ng·h/mL
same,clearance,"[2]; infusion rate 0.3/1/3 ng/kg/min, N = 1, read-out: CL (converted)",3.17 mL/min/kg
same,Cmax,"[2]; infusion rate 0.3/1/3 ng/kg/min, mean, N = 2",0.826 ng/mL
same,Tmax,"[2]; infusion rate 0.3/1/3 ng/kg/min, N = 2",6.25 h
same,AUC(0-inf),[2]; [6],6.72 ng·h/mL
same,Cmax,[2]; [6],1.98 ng/mL
same,clearance,"[2]; infusion rate 1/3/9 ng/kg/min, mean, N = 2, read-out: CL (converted)",5.33 mL/min/kg
same,Tmax,"[2]; infusion rate 1/3/9 ng/kg/min, N = 2",7.04 h
same,AUC(0-inf),[2]; [7],19 ng·h/mL
same,Cmax,[2]; [7],4.77 ng/mL
same,clearance,"[2]; infusion rate 3/9/18 ng/kg/min, mean, N = 2, read-out: CL (converted)",4 mL/min/kg
same,Tmax,"[2]; infusion rate 3/9/18 ng/kg/min, N = 2",6.75 h
same,AUC(0-inf),[2]; [8],24.9 ng·h/mL
same,Cmax,[2]; [8],6.41 ng/mL
same,clearance,"[2]; infusion rate 3/18/54 ng/kg/min, mean, N = 2, read-out: CL (converted)",7.67 mL/min/kg
same,Tmax,"[2]; infusion rate 3/18/54 ng/kg/min, N = 2",6.04 h
same,AUC(0-inf),"[2]; infusion rate 9/18/36 ng/kg/min, mean, N = 2",33.8 ng·h/mL
same,clearance,"[2]; infusion rate 9/18/36 ng/kg/min, mean, N = 2, read-out: CL (converted)",5.5 mL/min/kg
same,half-life,"[2]; infusion rate 9/18/36 ng/kg/min, mean, N = 2, read-out: T1/2, effective (converted)",3.95 h
same,Cmax,"[2]; infusion rate 9/18/36 ng/kg/min, mean, N = 3",5.52 ng/mL
same,Tmax,"[2]; infusion rate 9/18/36 ng/kg/min, N = 3",7.48 h
same,AUC(0-inf),"[2]; infusion rate 18/36/45 ng/kg/min, N = 1",51.5 ng·h/mL
same,clearance,"[2]; infusion rate 18/36/45 ng/kg/min, N = 1, read-out: CL (converted)",4.83 mL/min/kg
same,Cmax,"[2]; infusion rate 18/36/45 ng/kg/min, mean, N = 2",8.04 ng/mL
same,Tmax,"[2]; infusion rate 18/36/45 ng/kg/min, N = 2",7.34 h
same,clearance,[2]; read-out: Mean systemic clearance,3.17 to 7.67 mL/min/kg
same,half-life,[2]; read-out: Mean terminal half-life,0.24 to 7.04 h
same,half-life,[2]; read-out: effective half-life,1.32 to 2.51 h
same,level at 0.5 h,[3]; 22 ng/kg/min,0.62 ng/mL
same,level at time molar at 0.5 h,[3]; 22 ng/kg/min,0.142 nM
same,level at 0.5 h,[3]; 43 ng/kg/min,4.58 ng/mL
same,level at time molar at 0.5 h,[3]; 43 ng/kg/min,1.05 nM
same,level at 0.5 h,[3]; 86 ng/kg/min,5.14 ng/mL
same,level at time molar at 0.5 h,[3]; 86 ng/kg/min,1.18 nM
same,level at 0.5 h,[3]; 146 ng/kg/min,23.6 ng/mL
same,level at time molar at 0.5 h,[3]; 146 ng/kg/min,5.41 nM
same,level at 0.5 h,[3]; 437 ng/kg/min,67.1 ng/mL
same,level at time molar at 0.5 h,[3]; 437 ng/kg/min,15.4 nM
same,half-life,"[4]; female, 54 ng/kg, T1/2",23.4 h
same,half-life,"[4]; female, 54 ng/kg, T1/2, effective",5.84 h
same,Vd,"[4]; female, 54 ng/kg",2.72 L/kg
same,AUC(0-inf),"[4]; female, 54 ng/kg, healthy subjects, 54 ng/kg/min, 72 Hours Female, mean, N = 5",740 ng·h/mL
same,Cmax,"[4]; female, 54 ng/kg, healthy subjects, 54 ng/kg/min, 72 Hours Female, mean, N = 6",11.5 ng/mL
same,clearance,"[4]; female, 54 ng/kg, healthy subjects, 54 ng/kg/min, 72 Hours Female, mean, N = 6, read-out: CL (converted)",5.5 mL/min/kg
same,Tmax,"[4]; female, 54 ng/kg, healthy subjects, 54 ng/kg/min, 72 Hours Female, N = 6",18 h
same,half-life,"[4]; 54 ng/kg/min, healthy subjects, 24- or 72-hour infusion of 54 ng/kg/min, read-out: Mean terminal half-life",23.4 to 28.8 h
same,half-life,"[4]; 54 ng/kg/min, healthy subjects, 24- or 72-hour infusion of 54 ng/kg/min, read-out: effective half-life",5.84 to 9.62 h
same,clearance,"[4]; 54 ng/kg/min, healthy subjects, 24- or 72-hour infusion of 54 ng/kg/min, read-out: mean clearance",4.67 to 6.33 mL/min/kg
same,T1/2,"[4]; male, 54 ng/kg",28.81 h
same,"T1/2, effective","[4]; male, 54 ng/kg",9.62 h
same,Vss,"[4]; male, 54 ng/kg",4.94 L/kg
same,half-life,"[4]; male, 54 ng/kg, T1/2",25.7 h
same,half-life,"[4]; male, 54 ng/kg, T1/2, effective",9.37 h
same,Vd,"[4]; male, 54 ng/kg",3.7 L/kg
same,AUC(0-inf),[4]; [9],283 ng·h/mL
same,Cmax,[4]; [9],12.2 ng/mL
same,clearance,"[4]; male, 54 ng/kg, healthy subjects, 54 ng/kg/min, 24 Hours Male, mean, N = 7, read-out: CL (converted)",4.67 mL/min/kg
same,Tmax,"[4]; male, 54 ng/kg, healthy subjects, 54 ng/kg/min, 24 Hours Male, N = 7",16 h
same,AUC(0-inf),[4]; [10],632 ng·h/mL
same,Cmax,[4]; [10],10.2 ng/mL
same,clearance,"[4]; male, 54 ng/kg, healthy subjects, 54 ng/kg/min, 72 Hours Male, mean, N = 7, read-out: CL (converted)",6.33 mL/min/kg
same,Tmax,"[4]; male, 54 ng/kg, healthy subjects, 54 ng/kg/min, 72 Hours Male, N = 7",24 h
"H-HPGSRIVLSLDVPIGLLQILLEQARARAAREQATTNARILARV-NH2 [SEQ ID NO: 117, HPGSRIVLSLDVPIGLLQILLEQARARAAREQATTNARILARV-NH2, reference compound]",Published pA50,[5],>7^3
